Measured values reported in patent US4436726A, “N-Acylpeptide compound, processes for the preparation thereof and the pharmaceutical compositions” (Fujisawa Pharmaceutical Co., Ltd., priority 1980, dated 1984).

Tests used:
[1] = test system: complement serum (guinea pig complement); assay: Anticomplementary activity (inhibition of hemolysis of sensitized erythrocytes); format: biochemical; details: 50% hemolysis inhibition, 37° C.
Procedure: The anticomplementary activity of the test compound was measured according to the test method as described in Experimental Immunochemistry, edited by E. A. Kabat and M. M. Mayer, 2nd ed., Springfield, III: C. C. Thomas (1961) pages 133-240.
A mixture of 1 ml of a 5-fold diluted solution of a Veronal buffer solution containing 1.5×10^-4 M Ca^2+ and 5×10^-4 M Mg^2+ and isotonic gelatin, 1.5 ml of complement serum (guinea pig complement) diluted 400 times with a physiological saline solution and 0.05 ml of a solution of a test compound (in this case, a test compound was dissolved in a physiological saline solution) was incubated at 37° C. for 30 minutes. To the said mixture there was added 0.4 ml of sensitized erythrocytes suspension containing 5×10^8 cells/ml and said mixture was incubated at 37° C. further for 60 minutes. After the incubation, the mixture was centrifuged in 3,000 rpm at 4° C. for 10 minutes.
The results are expressed in Table 1 as the concentration of each drugs inhibiting the hemolysis activity by 50% (IC50).

[2] = test system: blood clot (fresh rabbit blood, urokinase, bovine thrombin); assay: Fibrinolytic activity (modified diluted whole blood clot lysis time method); format: biochemical; details: 50 μl of test compound (300 μg/ml), 37° C.
Procedure: The enhancement of the fibrinolytic activity of the test compounds was measured according to the modified diluted whole blood clot lysis time method described in
G. R. Fearnley, G. V. Balmforth, E. Fearnley: Clin. Sci. 16, 645-650 (1957)
I. S. Chohan et al: Thrombos. Diathes. Haemorrh. 33, 226 (1975) and
I. M. Nilsson et al: Handbook of Experimental Pharmacology 46, 110
Fresh rabbit blood was diluted 20 times with 1/15 M phosphate buffer (pH 7.4). A mixture of 400 μl of the diluted blood solution and 50 μl of a test compound (300 μg/ml) was incubated at 37° C. for 30 minutes. To the mixture were added 50 μl of urokinase solution (100 IU/ml) and 50 μl of bovine thrombin (100 N.I.H. u/ml). The clot produced in tubes was incubated at 37° C. for various periods of time. At the end of each incubation interval (15 minutes interval), 2.5 ml of distilled water was added to lyse erythrocytes released from clotted blood and absorbance (OD541) of the supernatant separated by centrifugation (3,000 rpm for 10 minutes) from the reaction mixture was measured. The fibrinolytic activity of the test compound was determined by the time in minutes needed for the complete lysis of the blood clot.
In the absence of a test compound, it took more than 2 hours to lyse blood clot in the above condition. However, blood clot was lysed in the presence of test compounds after 15 minutes (symbol: ++) and 45 minutes (symbol: +) incubation, respectively. Samples which were incapable of lysing blood clot within 1 hour incubation were expressed as symbol (-).

| SMILES | Anticomplementary Activity (IC50) [1] [µg/mL] | Fibrinolytic Activity (time needed for complete lysis of the blood clot) [2] |
| --- | --- | --- |
| CC(C)CCCCCCCCCCCC(=O)OC(CCCCCCCCCCCC(C)C)CC(=O)NCC(=O)N[C@@H](Cc1ccc(O)cc1)C(=O)O (stereo partly drawn) [Example 18, N-[N-[15-methyl-3-(13-methyltetradecanoyloxy)hexadecanoyl]glycyl]-L-tyrosine] | 3.2 | + (45 minutes (symbol: +) incubation) |
| CCCCCCCCCCCCCCCC(=O)OC(CCCCCCCCCCCCCCC)CC(=O)NCCC(=O)N[C@H](C(=O)O)[C@@H](C)O (stereo partly drawn) [Example 7, N-[N-(3-hexadecanoyloxyoctadecanoyl)-β-alanyl]-L-threonine] | 0.02 to 0.03 |  |
| CC(C)CCCCCCCCCCCC(=O)OC(CCCCCCCCCCCC(C)C)CC(=O)N[C@@H](C)C(=O)N[C@@H](CO)C(=O)O (stereo partly drawn) [Example 12, N-[N-[15-methyl-3-(13-methyltetradecanoyloxy)hexadecanoyl]L-alanyl]-L-serine] | 0.59 |  |
| CC(C)CCCCCCCCCCCC(=O)OC(CCCCCCCCCCCC(C)C)CC(=O)NCCC(=O)N[C@@H](Cc1c[nH]cn1)C(=O)O (stereo partly drawn) [Example 16, N-[N-[15-methyl-3-(13-methyltetradecanoyloxy)hexadecanoyl]-β-alanyl]-L-histidine] | 4.2 |  |
| CC(C)CCCCCCCCCCCC(=O)OC(CCCCCCCCCCCC(C)C)CC(=O)NCCC(=O)N[C@H](C(=O)O)[C@@H](C)O (stereo partly drawn) [Example 8, N-[N-[15-methyl-3-(13-methyltetradecanoyloxy)hexadecanoyl]-β-alanyl]-L-threonine] | 0.04 to 0.06 |  |
| CCCCCCCCCCCCCCCC(=O)OC(CCCCCCCCCCCCCCC)CC(=O)NCCC(=O)N[C@@H](CO)C(=O)O (stereo partly drawn) [Example 10, N-[N-(3-hexadecanoyloxyoctadecanoyl)-β-alanyl]-L-serine] | 0.03 to 0.04 |  |
| CCCCCCCCCCCCCCCC(=O)OC(CCCCCCCCCCCCCC)C(=O)NCC(=O)N[C@@H](CO)C(=O)O (stereo partly drawn) [Example 35, N-[N-(2-hexadecanoyloxyhexadecanoyl)glycyl]-L-serine] | 0.03 | + (45 minutes (symbol: +) incubation) |
| CCCCCCCCCCCCCCCC(=O)OC(CCCCCCCCCCCCCCC)CC(=O)NCC(=O)O (stereo not shown) [Example 27, N-(3-hexadecanoyloxyoctadecanoyl)glycine] | 0.44 | + (45 minutes (symbol: +) incubation) |
| CC(C)CCCCCCCCCCCC(=O)OC(CCCCCCCCCCCC(C)C)CC(=O)NCC(=O)N[C@H](C(=O)O)[C@@H](C)O (stereo partly drawn) [Example 11, N-[N-[15-methyl-3-(13-methyltetradecanoyloxy)hexadecanoyl]glycyl]-L-threonine] | 0.36 | + (45 minutes (symbol: +) incubation) |
| CCCCCCCCCCCCCCCC(=O)OC(CCCCCCCCCCCCCC)C(=O)NCCC(=O)N[C@H](C(=O)O)[C@@H](C)O (stereo partly drawn) [Example 36, N-[N-(2-hexadecanoyloxyhexadecanoyl)-β-alanyl]-L-threonine] | 0.08 | + (45 minutes (symbol: +) incubation) |
| CCCCCCCCCCCCCCCC(=O)OC(CCCCCCCCCCCCCCC)CC(=O)NCCCCC(=O)N[C@H](C(=O)O)[C@@H](C)O (stereo partly drawn) [Example 34, N-[5-(3-hexadecanoyloxyoctadecanoyl)aminovaleryl]-L-threonine] | 0.02 | + (45 minutes (symbol: +) incubation) |
| CC(C)CCCCCCCCCCCC(=O)OC(CCCCCCCCCCCC(C)C)CC(=O)N[C@@H](CO)C(=O)O (stereo partly drawn) [Example 20, N-[15-methyl-3-(13-methyltetradecanoyloxy)hexadecanoyl]-L-serine] | 2.8 | + (45 minutes (symbol: +) incubation) |
| CCCCCCCCCCCCCCCC(=O)OC(CCCCCCCCCCCCCCC)CC(=O)NCC(=O)N[C@@H](Cc1ccccc1)C(=O)O (stereo partly drawn) [Example 38, N-[N-(3-hexadecanoyloxyoctadecanoyl)glycyl]-L-phenylalanine] | 3.4 | + (45 minutes (symbol: +) incubation) |
| CCCCCCCCCCCCCCCC(=O)OC(CCCCCCCCCCCCCCC)CC(=O)NCC(=O)N[C@@H](Cc1c[nH]c2ccccc12)C(=O)O (stereo partly drawn) [Example 43, N-[N-(3-hexadecanoyloxyoctadecanoyl)glycyl]-L-tryptophan] | 5.11 | + (45 minutes (symbol: +) incubation) |
| CC(C)CCCCCCCCCCCC(=O)OC(CCCCCCCCCCCC(C)C)CC(=O)NCC(=O)N[C@@H](Cc1ccccc1)C(=O)O (stereo partly drawn) [Example 15, N-[N-[15-methyl-3-(13-methyltetradecanoyloxy)hexadecanoyl]glycyl]-L-phenyl alanine] | 2.8 | ++ (blood clot was lysed in the presence of test compounds after 15 minutes (symbol: ++)) |
| CCCCCCCCCCCCCCCC(=O)OC(CCCCCCCCCCCCCCC)CC(=O)NCCC(=O)N[C@@H](Cc1ccccc1)C(=O)O (stereo partly drawn) [Example 32, N-[N-(3-hexadecanoyloxyoctadecanoyl)-β-alanyl]-L-phenylalanine] | 1.32 | ++ (blood clot was lysed in the presence of test compounds after 15 minutes (symbol: ++)) |
| CCCCCCCCCCCCCCCC(=O)OC(CCCCCCCCCCCCCCC)CC(=O)N[C@@H](Cc1ccccc1)C(=O)O (stereo partly drawn) [Example 26, N-(3-hexadecanoyloxyoctadecanoyl)-L-phenylalanine] | 3.5 | + (45 minutes (symbol: +) incubation) |
| CCCCCCCCCCCCCCCC(=O)OC(CCCCC)CC(=O)NCC(=O)N[C@@H](CO)C(=O)O (stereo partly drawn) [Example 4, N-[N-(3-hexadecanoyloxyoctanoyl)glycyl]-L-serine] | 1.1 |  |
| CCCCCCCCCCCCCCCC(=O)OC(CCCCCCCCCCCCCCC)CC(=O)N[C@H](C(=O)N[C@H](C(=O)O)[C@@H](C)O)C(C)C (stereo partly drawn) [Example 29, N-[N-(3-hexadecanoyloxyoctadecanoyl)-L-valyl]-L-threonine] | 0.59 |  |
| CC(C)CCCCCCCCCCCC(=O)OC(CCCCCCCCCCCC(C)C)CC(=O)NCC(=O)N[C@@H](CO)C(=O)O (stereo partly drawn) [Example 1, N-[N-[15-methyl-3-(13-methyltetradecanoyloxy)hexadecanoyl]glycyl]-L-serine] | 1.0 |  |
| CCCCCCCCCCCC(=O)OC(CCCCCCCCCCC)CC(=O)NCC(=O)N[C@@H](CO)C(=O)O (stereo partly drawn) [Example 3, N-[N-(3-dodecanoyloxytetradecanoyl)glycyl]-L-serine] | 0.12 |  |
| CC(C)CCCCCCCCCCCC(=O)OC(CCCCCCCCCCCC(C)C)CC(=O)N[C@@H](C)C(=O)N[C@H](C(=O)O)[C@@H](C)O (stereo partly drawn) [Example 13, N-[N-[15-methyl-3-(13-methyltetradecanoyloxy)hexadecanoyl]-L-alanyl]-L-thr eonine] | 0.72 |  |
| CC(C)CCCCCCCCCCCC(=O)OC(CCCCCCCCCCCC(C)C)CC(=O)NCCC(=O)N[C@@H](CO)C(=O)O (stereo partly drawn) [Example 9, N-[N-[15-methyl-3-(13-methyltetradecanoyloxy)hexadecanoyl]-β-alanyl]-L-serine] | 0.1 | + (45 minutes (symbol: +) incubation) |
| CCCCCCCCCCCCCCCC(=O)OC(CCCCCCCCCCCCCCC)CC(=O)N[C@@H](C)C(=O)N[C@H](C(=O)O)[C@@H](C)O (stereo partly drawn) [Example 14, N-[N-(3-hexadecanoyloxyoctadecanoyl)-L-alanyl]-L-threonine] | 0.23 |  |
